Source: article PMC12040169 (PLOS Biology, 2025)

Assay: in vitro
Conditions: human, hela cells, % viability

| Structure (SMILES) | viability at 28.5 h, 10 µM |
| --- | --- |
| O=C(NC1CC1)c1ccc(-n2cccn2)c(C#Cc2ccccn2)c1 [CBK282272] | 106% |
| Cn1ccnc1C1(O)CCN(C(=O)Nc2ccc(F)cc2)CC1 [CBK282277] | 97.4% |
| Cn1ccnc1C1(O)CCN(C(=O)Nc2ccccc2Cl)CC1 [CBK282278] | 89.3% |
| Cn1ccnc1C1(O)CCN(C(=O)Nc2cccc(F)c2)CC1 [CBK282279] | 109% |
| CCCNC(=O)N1CCC(n2cnc3cccnc32)CC1 [CBK282282] | 84.3% |
| CN(C)CCn1c([C@@H]2CCCO2)cc2cccnc21 [CBK282288] | 105% |
| CCCNC(=O)N1CCC(n2c(C)nc3cccnc32)CC1 [CBK282292] | 88.9% |
| Cc1cccnc1C1(O)CCN(C(=O)NCc2ccccc2)CC1 [CBK282293] | 88% |
| O=c1c2sccc2nc2n1CCN(Cc1ccc(F)c(F)c1)CC2 [CBK282295] | 103% |
| Cc1cc2cc(CNCCCN3CCCC3=O)c(=O)[nH]c2cc1C [CBK282296] | 81.4% |
| CCOC(=O)C1(Cc2ccccc2-c2ccncc2)CCNCC1 [CBK282297] | 88.8% |
| CCn1c(=O)n(CC(=O)N(C)C)c2cccnc21 [CBK282299] | 89.1% |
| O=C(NCCn1nc2c(cc1=O)CCCCC2)c1ccccc1F [CBK282300] | 89.3% |
| CC(C)(C)OC(=O)N1CCC[C@H]([C@H](O)c2cccs2)C1 [CBK282301] | 102% |
| C[C@@H](Cn1nnc2ccccc21)NC(=O)Cc1ccccc1F [CBK282305] | 86.1% |
| Cc1cc(C(=O)NC2CCCc3c2cnn3-c2ccc(F)cc2)on1 (stereo not shown) [CBK282310] | 108% |
| O=C1NCC(C2CCN(Cc3ccccc3)CC2)Oc2ccccc21 (stereo not shown) [CBK282314] | 85.9% |
| CC(C)C(=O)N1CCC[C@@H](Cn2nc(-c3cccs3)ccc2=O)C1 [CBK282317] | 96.5% |
| CC(NC(=O)c1ncoc1-c1ccc(F)cc1)c1ccncc1 (stereo not shown) [CBK282319] | 100% |
| CC(C)[C@@H](Cn1nc(C2CC2)ccc1=O)NC(=O)c1ccco1 [CBK282321] | 88.3% |
| O=C(c1ccc(F)cc1)[C@H]1CCCN(C(=O)c2n[nH]c3c2CCC3)C1 [CBK282322] | 86.7% |
| Fc1cccc(-c2nc3cnccn3c2NCc2ccco2)c1 [CBK282323] | 93.5% |
| COc1ccc(CNC(=O)[C@H]2C=CCN2C(=O)c2cccs2)cc1 [CBK282325] | 103% |

| Structure (SMILES) | viability at 28.5 h, 10 µM |
| --- | --- |
| COc1ccc(CNC(=O)[C@H]2C=CCN2C(=O)C2CC2)cc1 [CBK282326] | 109% |
| Cc1nc2c(c(=O)[nH]1)CN(Cc1c[nH]c3ccccc13)CC2 [CBK282327] | 102% |
| CCS(=O)(=O)N1CC2C3c4ccccc4C(c4ccccc43)C2C1 (stereo not shown) [CBK282328] | 98.5% |
| O=C(C1CCCC1)N1CCc2nc(-c3ccccc3)[nH]c(=O)c2C1 [CBK282331] | 99% |
| Fc1ccccc1-c1nc2cnccn2c1NCc1cccs1 [CBK282332] | 90.3% |
| CC(C)[C@@H](Cn1nnc2ccccc21)NC(=O)c1ccco1 [CBK282335] | 108% |
| C#CCNC(=O)C1CCCN(c2nc3ccccc3n2C)C1 (stereo not shown) [CBK282336] | 89.6% |
| COc1ccc(-n2ncc3c2CC(C)(C)CC3NC(=O)C2CC2)cc1 (stereo not shown) [CBK282337] | 91.1% |
| Cc1nc2c(c(=O)[nH]1)CCN(Cc1cc(C)n(C3CC3)c1C)C2 [CBK282338] | 89.2% |
| O=C(C1=Cc2ccccc2OC1)N1CCC(c2ccncc2)CC1 [CBK282339] | 104% |
| CCn1cc(C(=O)NC2CC3(CCCC3)Oc3ccccc32)c(C)n1 (stereo not shown) [CBK282340] | 91.2% |
| CC(C)(C)C(=O)NCCn1nc(-c2cccs2)oc1=O [CBK282344] | 110% |
| O=C(NCCn1nc(-c2cccs2)oc1=O)C1CCCC1 [CBK282345] | 105% |
| CCN(CC)C(=O)Cn1c(=O)n(CC)c2ncccc21 [CBK282347] | 107% |
| C=CCNC(=O)[C@H]1C=CCN1C(=O)Nc1ccccc1Cl [CBK282348] | 99% |
| CC(C)C(=O)N1CCC(n2nc(C3CC3)ccc2=O)CC1 [CBK282351] | 104% |
| O=C(NCc1ccccn1)c1ncoc1-c1ccc(F)cc1 [CBK282352] | 79.6% |
| O=C(NCc1ccncc1)c1ncoc1-c1ccc(F)cc1 [CBK282354] | 83.8% |
| O=C(NCCn1cccn1)c1ncoc1-c1ccc(F)cc1 [CBK282355] | 91.5% |
| CC(NC(=O)c1ncoc1-c1ccc(F)cc1)c1cccnc1 (stereo not shown) [CBK282358] | 103% |
| Cc1nn(C)c(C)c1NC(=O)c1ncoc1-c1ccc(F)cc1 [CBK282359] | 87.7% |
| CCn1nc(C)c(NC(=O)c2ncoc2-c2ccc(F)cc2)c1C [CBK282360] | 88% |
| CCCn1nc(C)cc1NC(=O)c1ncoc1-c1ccc(F)cc1 [CBK282361] | 88.7% |
